Measured values published in patent publication US20260174674A1, “INCOMPLETE AUTOPHAGY INDUCTION FOR THE TREATMENT OF CANCER” (Northwestern University, priority 2022, published 2026).

Columns and labels:
α-synuclein = details: cited from earlier work
[1] = cited from earlier work
brain metastases = details: added to whole-brain radiation, cited from earlier work
[2] = test system: HCC1954 mammary fat pad tumors; assay: Mammary fat pad tumor model; type: in vivo, nude mice
Protocol: (§1) All animal studies were completed per the National Institutes of Health guidelines on the care and use of laboratory animals for research purposes. The Institutional Committee on Animal Use at Northwestern University approved the protocols. Six- to eight-week-old athymic, immunodeficient (nu/nu) female mice were obtained from Charles River and maintained in a specific pathogen-free facility. For mammary gland injections, 1×10^6 HCC1954 cells were injected in the inguinal mammary fat pad of nude female mice. For the stereotactic intracranial injection, mice were placed in a stereotactic frame, and 5×10^5 BT-474Br cells were intracranially injected at a depth of 3 mm. For intracarotid artery injections, 1×10^6 MDA-MB-231Br cells were injected using a 31-gauge BD insulin syringe into the lumen of internal carotid artery.
The efficacy of metixene hydrochloride was evaluated using an in vivo model. HCC1954 cells were injected into the mammary fat pads of nude mice. After the formation and establishment of 5 mm breast tumors, mice were randomly divided into three groups whereby treatment was administered intraperitoneally: control (25% captisol); metixene (0.1 mg/kg); and metixene (1.0 mg/kg). The dosages were given three times a week. After 6 weeks, fat pad tumors were collected and analyzed (FIG. 2A).

[3] = test system: LC3 in MDA-MB-231-Br cells; assay: LC3 conversion and autophagy flux; type: cell-based; details: 10 μM, time course
Protocol: Next, MDA-MB-231-Br cells were treated with metixene for different durations to determine the mechanism of autophagic signaling in brain metastatic cells. […] Afterward, autophagy flux changes after ten minutes, one hour, and three hours of treatment were tested. LC3 II levels in control (untreated) cells, cells treated with chloroquine (25 μM), cells treated with metixene (10 μM), and cells treated with metixene and chloroquine were compared.

[4] = test system: WM3734 melanoma brain metastatic cells; assay: Cell killing in melanoma brain metastatic cells; type: cell-based; details: increasing amount of metixene
Protocol: (§2) FIGS. 4A-4C. Metixene induces cell death in primary brain tumors and other metastatic cancers. (FIG. 4A) CT2A glioma cells were treated with increasing amount of metixene. […] (FIG. 4B) H2030Br lung cancer brain metastatic cells were treated with increasing amount of metixene. […] (FIG. 4C) WM3734 melanoma brain metastatic cells were treated with increasing amount of metixene.
(§3) The inventors then checked whether NDRG1 is further involved in the apoptotic cell death induced by metixene. A cell viability assay was conducted to check the effect of NDRG1 KO versus vector control upon metixene dose-dependent treatment. […] Upon NDRG1 KO, autophagy is completed, and the caspase-mediated pathway of apoptosis is not activated. This mechanism applies to primary brain cancers, such as glioblastoma (FIG. 4A), and other metastatic cancers to the brain, such as lung cancer (FIG. 4B) and melanoma (FIG. 4C).

[5] = test system: cleaved caspase-3 in MDA-MB-231Br; assay: Cleaved caspase-3 protein expression; type: cell-based; details: 24 hours
From the text: (§4) Next, whether metixene induces apoptotic cell death was investigated. […] Immunofluorescence analysis of metixene-treated BT-474Br and MDA-MB-231Br cells confirmed increased cleaved caspase-3 expression.

[6] = test system: cleaved caspase-3 in BT-474Br; assay: Cleaved caspase-3 protein expression; type: cell-based; details: 24 hours
From the text: as §4

[7] = test system: NDRG1 KO MDA-MB-231Br cells; assay: NDRG1 CRISPR Cas9 knockout versus vector control; type: cell-based
Protocol: (§5) Upon further analysis of the RPPA data, the phosphorylation of N-Myc Downstream Regulated 1 (NDRG1) was noted to be relevant in four major pathways related to autophagy after 24 hours of metixene treatment. […] To confirm the role of NDRG1 in autophagy, NDRG1 knockout (KO) cells were generated using CRISPR Cas9 in MDA-MB-231Br cells. The cells were then treated with metixene in a dose-dependent manner and compared to cells transfected with a vector control.
as §3

[8] = test system: caspase 3/7 activity in MDA-MB-231Br; assay: Caspase 3/7 assay; type: cell-based
HCC1954 = assay: CNS drug screen, cell viability, trastuzumab-resistant line; type: cell-based; details: 25 μM
Protocol: (§6) The Prestwick CNS Drug Library of 320 CNS compounds was purchased from Prestwick Chemical Libraries for screening. Cells were seeded at a density of 5000 cells/well in clear, flatbottomed, black-walled, 96-well plates. Each compound from the library was added at a final concentration of 25 μM per well 1 day after seeding of cells. After three days of treatment, cell viability was measured using CellTiter-Glo® Luminescent Cell Viability Assay (Promega) according to the manufacturer's instructions.
HER2-positive breast cancer has the greatest risk for intracranial-specific metastases. When metastatic cancer cells colonize the brain, they develop resistance to systemic therapies, such as trastuzumab. For this reason, another blinded screen was conducted on a metastatic breast cancer cell line that is trastuzumab-resistant, HCC1954. At 25 μM, the screen yielded five hits that caused a nearly complete loss of cell viability. […] Next, the effect of metixene on different metastatic breast cancer cell lines was determined by measuring its IC50 in two HER2-positive cell lines (BT474 and HCC1954) and five triple-negative breast cancer cell lines (MDAMB-231-Br, HCC1806, HS578T, HCC3153, and SUM159) after 72 hours of treatment.

[9] = test system: MDA-MB-231-Br brain metastases; assay: Intracarotid model of multiple brain metastases; type: in vivo, nude mice; details: 1.0 mg/kg intraperitoneally three times per week, p=0.037
Protocol: as §1
The model was established through a systemic intracarotid injection of triple-negative MDA-MB-231-Br cells in nude mice. Ten days after injection of tumor cells, mice were randomly divided into two groups and treated intraperitoneally with: control (25% captisol, n=5) and metixene (1.0 mg/kg, n=6). The treatments were given three times per week.

CT2A glioma cells = assay: Cell killing in glioma cells; type: cell-based; details: increasing amount of metixene
Protocol: as §2, §3

[10] = test system: caspase 3/7 activity in BT-474Br; assay: Caspase 3/7 assay; type: cell-based
[11] = test system: H2030Br lung cancer brain metastatic cells; assay: Cell killing in lung cancer brain metastatic cells; type: cell-based; details: increasing amount of metixene
Protocol: as §2, §3

[12] = test system: BT-474Br, a HER2-positive BCBM cell line; assay: CNS drug screen, CellTiter-Glo cell viability; type: cell-based; details: 25 μM, 72 hours, Cell Titer Glo
Protocol: as §6
A blinded screen was conducted on a drug library comprising 320 structurally diverse drugs that are FDA approved, blood brain barrier (BBB) permeable, and known for their pharmacological effects on the CNS to identify potential hits for therapeutic intervention against brain metastases. Using BT-474Br, a HER2-positive BCBM cell line, the efficacy of the 320 compounds were screened at a standard concentration of 25 μM. After 72 hours of treatment, a cell viability assay was performed using Cell Titer Glo to determine the number of viable, metabolically active cells in culture. The screen yielded five different therapeutic agents that caused a vast reduction (>95%) in cell viability in vitro.

LC3 in BT-474Br cells = assay: LC3 puncta immunofluorescence; type: cell-based; details: 10 μM; P=0.015
Protocol: (§7) The efficacy of metixene in inducing autophagy was tested in two primary breast and brain metastatic cancer cell lines, using BT-474 and BT-474Br and MDA-MB-231 and MDA-MB-231Br, respectively.

[13] = test system: BT-474Br intracranial tumors; assay: Stereotactic intracranial model of BCBM; type: in vivo, nude mice
Protocol: as §1
After showing its anti-tumor effect in vivo, whether metixene could improve survival in different preclinical models of brain metastases was tested. A stereotactic intracranial injection of HER2-positive BT474-Br cells was performed in nude mice. After 10 days of recovery and tumor growth, the mice were divided into two groups that were treated intraperitoneally: control (25% captisol, n=7); and metixene (1.0 mg/kg, n=8). The dosages were given three times per week.

NDRG1 in MDA-MB-231Br = assay: NDRG1 and pNDRG1 expression; type: cell-based; details: dose-dependent treatment
Protocol: as §5

BT-474Br = assay: Cell viability assay; type: cell-based
Protocol: (§8) Following the determination of an appropriate range for treatment of BCBM cells, the anti-cancer activity of metixene was evaluated in the brain metastatic HER2-positive BT-474Br and the triple-negative MDA-MB-231Br cell lines, using increasing concentrations of the drug at different time points.

MDA-MB-231Br = assay: Cell viability assay; type: cell-based
Protocol: as §8

[14] = test system: BT-474 and BT-474Br and MDA-MB-231 and MDA-MB-231Br; assay: Autophagy induction with increasing concentration (LC3, SQSTM1/p62); type: cell-based
Protocol: as §7

[15] = dose-dependent treatment, Western blot

Structure (SMILES): C=CCNC1=C2C[C@@H](C)C[C@H](OC)[C@H](O)[C@@H](C)/C=C(\C)[C@H](OC(N)=O)[C@@H](OC)/C=C\C=C(/C)C(=O)NC(=CC1=O)C2=O [17-AAG]
- reduction of α-synuclein in cells (α-synuclein): effective in reducing α-synuclein in cells

Structure (SMILES): CCN(CC)CCCC(C)Nc1ccnc2cc(Cl)ccc12 (stereo not drawn) [chloroquine]
- BBB permeability [1]: low permeability of the BBB
- toxicity (brain metastases; vs controls): no increase in toxicity
- overall survival (brain metastases; controls 7.42 months, P=0.839): 10.2 months

Structure (SMILES): CN1CCCC(CC2c3ccccc3Sc3ccccc32)C1 (stereo not drawn) [metixene]
- tumor weight ([2]; 0.1 mg/kg intraperitoneally three times a week, 6 weeks, P=0.0043): decreased significantly
- percent of cleaved caspase-3-positive cells in tumor sections ([2]; 0.1 mg/kg, p=0.001): significant increase
- tumor weight ([2]; 1.0 mg/kg intraperitoneally three times a week, 6 weeks, P=0.0004): decreased significantly
- percent of cleaved caspase-3-positive cells in tumor sections ([2]; 1.0 mg/kg, p=0.0002): significant increase
- tumor volume ([2]; 0.1 and 1.0 mg/kg intraperitoneally three times a week, 6 weeks, p<0.0001): decreased significantly
- BBB permeability [1]: BBB permeable
- conversion of LC3 I to LC3 II [3]: increase as early as ten minutes
- concentration at which potent cell-killing effect begins [4]: 10 µM
- cleaved caspase-3 protein levels [5]: markedly increase
- cleaved caspase-3 protein levels [6]: markedly increase
- apoptosis (caspase 3/7) in NDRG1 KO cells vs control ([7]; 10 μM (P=0.0078) and 15 μM (P<0.0001)): significantly reduced
- viability of NDRG1 KO cells vs control cells ([7]; 10 μM (P=0.0271) and 20 μM (P<0.0001)): significantly more viable
- LC3II levels in NDRG1 KO cells vs vector control [7, 15]: decreased significantly
- p62 levels in NDRG1 KO cells vs vector control [7, 15]: significant decrease
- caspase 3/7 activity ([8]; 24 hours, 10 μM and 15 μM): significant increase in caspase 3/7 activity
- caspase 3/7 activity ([8]; 48 hours, 15 μM): increased significantly
- loss of cell viability (HCC1954): top hit in both screens
- median survival ([9]; control 44 days): 67 days
- increase in survival in comparison to controls [9]: 52%
- concentration at which potent cell-killing effect begins (CT2A glioma cells): 5 µM
- caspase 3/7 activity ([10]; 24 hours): significant increase in caspase 3/7 activity
- caspase 3/7 activity ([10]; 48 hours, 15 μM): increased significantly
- concentration at which potent cell-killing effect begins [11]: 10 µM
- reduction in cell viability [12]: top hit in both screens
- LC3 puncta accumulation (LC3 in BT-474Br cells): significant increase in the accumulation of puncta
- median survival ([13]; 1.0 mg/kg intraperitoneally three times per week, control 52 days, p=0.0008): 64 days
- luciferase signal in the brain ([13]; 1.0 mg/kg, after six weeks of treatment, vs controls, p=0.02): significant reduction
- expression of NDRG1 and pNDRG1 (NDRG1 in MDA-MB-231Br): increased significantly in a dose-dependent manner
- cell viability (BT-474Br; 24 hours): significant reduction in cell viability
- cell viability (BT-474Br; 48 hours, 15 μM): significantly decreased
- cell viability (MDA-MB-231Br; 24 hours): significant reduction in cell viability
- cell viability (MDA-MB-231Br; 48 hours, 5, 10, and 15 μM): significantly decreased
- LC3 II levels ([14]; increasing concentration): increased as the concentration of metixene increased
- ratio of LC3 II to I levels ([14]; increasing concentration): trended upwards with increasing concentration
- SQSTM1/p62 levels ([14]; increasing concentration (FIG. 3F)): increased with increasing concentration
